The values below come from the supplement of paper PMC10307832.

Assay in all cases: relative viability (nuclei count vs DMSO), 5 days (fraction); higher = more cells survive
Compound in the assay “IU1-47 + Pemetrexed”: CC1=CC(=C(N1C2=CC=C(C=C2)Cl)C)C(=O)CN3CCCCC3 [IU1-47] + Nc1nc2[nH]cc(CCc3ccc(C(=O)N[C@@H](CCC(=O)O)C(=O)O)cc3)c2c(=O)[nH]1 [Pemetrexed] (partner 0.2 µM)
The method in brief: (§1)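 Lung cancer cell lines were pin-tool dosed in 1536-well plates on the day after seeding, with either a lone drug or a fixed anchor-drug dose plus five library-drug doses (not always all listed) in √10 steps. Nuclei were counted on 4× images after 5 days. Relative viability is the ratio of treated-well to vehicle-well nuclei counts, with each value a median of duplicate plates.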

Compound in the assay “IU1-47 + Dasatinib”: CC1=CC(=C(N1C2=CC=C(C=C2)Cl)C)C(=O)CN3CCCCC3 [IU1-47] + Cc1nc(Nc2ncc(C(=O)Nc3c(C)cccc3Cl)s2)cc(N2CCN(CCO)CC2)n1 [Dasatinib] (partner 0.075 µM)
The method in brief:
as §1

Compound in the assay “FG-4592 + Luminespib”: Cc1nc(C(=O)NCC(=O)O)c(O)c2ccc(Oc3ccccc3)cc12 [FG-4592] + CCNC(=O)c1noc(-c2cc(C(C)C)c(O)cc2O)c1-c1ccc(CN2CCOCC2)cc1 [Luminespib] (partner 0.01 µM)
The method in brief:
as §1

Compound in the assay “IU1-47 + Crizotinib”: CC1=CC(=C(N1C2=CC=C(C=C2)Cl)C)C(=O)CN3CCCCC3 [IU1-47] + C[C@@H](Oc1cc(-c2cnn(C3CCNCC3)c2)cnc1N)c1c(Cl)ccc(F)c1Cl [Crizotinib] (partner 1 µM)
The method in brief: as §1

With UMC-11, the relative viability with IU1-47 + Pemetrexed (first compound 0.08 µM) was found to be 0.777; in the assay with IU1-47 + Pemetrexed (first compound 0.253 µM), 0.716; with IU1-47 + Pemetrexed (first compound 0.8 µM), 0.811; in the assay with IU1-47 + Pemetrexed (first compound 2.53 µM), 0.903; with IU1-47 + Pemetrexed (first compound 8 µM), 0.796; with IU1-47 + Dasatinib (first compound 0.08 µM), 0.429. Besides, the relative viability in the assay with IU1-47 + Dasatinib (first compound 0.253 µM) was found to be 0.423; with IU1-47 + Dasatinib (first compound 0.8 µM) it was 0.572; in the assay with IU1-47 + Dasatinib (first compound 2.53 µM), 0.388; in the assay with IU1-47 + Dasatinib (first compound 8 µM), 0.341; with FG-4592 + Luminespib (first compound 0.08 µM), 0.957; with FG-4592 + Luminespib (first compound 0.253 µM), 0.944. In addition, the relative viability with FG-4592 + Luminespib (first compound 0.8 µM) was determined as 1.01; with FG-4592 + Luminespib (first compound 2.53 µM) it was 0.995; with FG-4592 + Luminespib (first compound 8 µM) it was 0.778; in the assay with IU1-47 + Crizotinib (first compound 0.08 µM), 0.564; with IU1-47 + Crizotinib (first compound 0.253 µM), 0.641; in the assay with IU1-47 + Crizotinib (first compound 0.8 µM) it was 0.476. In addition, the values for the relative viability with IU1-47 + Crizotinib (first compound 2.53 µM) and with IU1-47 + Crizotinib (first compound 8 µM) were 0.673 and 0.574, respectively.
